The record followed here is ChEMBL document CHEMBL5244281, “Tackling multidrug-resistant Staphylococcus aureus by natural products and their analogues acting as NorA efflux pump inhibitors” (Bioorg Med Chem, 2023).

The target of experiment [1] is T1, Quinolone resistance protein NorA (Staphylococcus aureus) (UniProt P0A0J7).
T1 sequence (whole entry): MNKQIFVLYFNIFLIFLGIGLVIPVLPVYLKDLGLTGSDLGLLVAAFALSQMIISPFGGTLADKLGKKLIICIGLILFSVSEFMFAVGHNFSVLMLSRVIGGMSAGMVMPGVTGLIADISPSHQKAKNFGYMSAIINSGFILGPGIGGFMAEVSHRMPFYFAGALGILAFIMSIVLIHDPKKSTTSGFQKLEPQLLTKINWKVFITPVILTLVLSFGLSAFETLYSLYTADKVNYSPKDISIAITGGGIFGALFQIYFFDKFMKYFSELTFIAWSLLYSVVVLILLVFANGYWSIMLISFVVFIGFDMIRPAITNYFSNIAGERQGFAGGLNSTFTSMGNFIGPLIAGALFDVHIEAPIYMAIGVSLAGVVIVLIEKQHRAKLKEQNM
Description: Modulation of EtBr -induced inhibition of NorA efflux pump in Staphylococcus aureus 1199B overexpressing NorA efflux pump assessed as reduction in EtBr MIC at 1/4 times of MIC using EtBr as substrate by resazurin based assay. On the technique in general: The colour change of resazurin is a common sign of viable cells or microbes.

The target in experiment [2] is T1, Quinolone resistance protein NorA (Staphylococcus aureus). Description: Modulation of norfloxacin-induced inhibition of NorA efflux pump in Staphylococcus aureus 1199B overexpressing NorA efflux pump assessed as reduction in norfloxacin MIC at 1/4 times of MIC by resazurin based assay.
Experiment [3] has as its system Staphylococcus aureus. Description: Antibacterial activity against norfloxacin resistant Staphylococcus aureus 1199B overexpressing NorA assessed as bacterial growth inhibition incubated for 24 hrs by resazurin based broth microdilution method. In kind it is functional.
Experiment [4] has as its system Staphylococcus aureus. As to the kind of experiment: Antibacterial activity against norfloxacin resistant Staphylococcus aureus 1199 assessed as bacterial growth inhibition incubated for 24 hrs by resazurin based broth microdilution method. In kind it is functional.
The subject of experiment [5] is Staphylococcus aureus. Description: Antibacterial activity against tetracycline-resistant Staphylococcus aureus XU212 assessed as bacterial growth inhibition incubated for 18 hrs by MTT assay. In kind it is functional. A general note: Tetrazolium dyes change colour on reduction, which living cells bring about.
For experiment [6], the system named is Staphylococcus aureus. As to the kind of experiment: Antibacterial activity against Staphylococcus aureus ATCC25923 assessed as bacterial growth inhibition incubated for 18 hrs by MTT assay. The class given is functional.
The test system of experiment [7] is Staphylococcus aureus. Description: Antibacterial activity against Staphylococcus aureus 1199B overexpressing NorA assessed as bacterial growth inhibition incubated for 18 hrs by MTT assay. In kind it is functional.
Experiment [8] deals with Staphylococcus aureus. Description: Antibacterial activity against Staphylococcus aureus RN4220 assessed as bacterial growth inhibition incubated for 18 hrs by MTT assay. In kind it is functional.
For experiment [9], the system named is Staphylococcus aureus. Description: Antibacterial activity against Staphylococcus aureus EMRSA-15 assessed as bacterial growth inhibition incubated for 18 hrs by MTT assay. In kind it is functional.
Experiment [10] has as its system Staphylococcus aureus. Description: Antibacterial activity against methicillin-resistant Staphylococcus aureus 1199B overexpressing NorA gene assessed as bacterial growth inhibition. In kind it is functional.
Experiment [11] relates to Staphylococcus aureus. As to the kind of experiment: Antibacterial activity against Staphylococcus aureus 1199 assessed as bacterial growth inhibition incubated for 24 hrs by broth microdilution method. In kind it is functional. (In general: Dilution methods test growth across graded concentrations, often in twofold steps.)
Experiment [12] concerns Staphylococcus aureus. As to the kind of experiment: Antibacterial activity against Staphylococcus aureus 1199B overexpressing NorA efflux gene assessed as bacterial growth inhibition incubated for 24 hrs by broth microdilution method. The class given is functional.
For experiment [13], the system named is Staphylococcus aureus. As to the kind of experiment: Antibacterial activity against NorA knockout Staphylococcus aureus K1758 assessed as bacterial growth inhibition incubated for 24 hrs by broth microdilution method. The class given is functional.
The subject of experiment [14] is Staphylococcus aureus. As to the kind of experiment: Antibacterial activity against norfloxacin resistant Staphylococcus aureus 1199B overexpressing NorA assessed as bacterial growth inhibition incubated for 24 hrs by resazurin based microdilution assay. In kind it is functional.
Experiment [15] deals with Staphylococcus aureus. Description: Antibacterial activity against norfloxacin resistant Staphylococcus aureus IS-58 overexpressing TetK efflux pump gene assessed as bacterial growth inhibition incubated for 18 to 24 hrs by NCCLS protocol based microdilution method. In kind it is functional. To be noted: time 18-24 hrs.
The test system of experiment [16] is Staphylococcus aureus. As to the kind of experiment: Antibacterial activity against norfloxacin resistant Staphylococcus aureus RN4220 overexpressing MsrA efflux pump gene assessed as bacterial growth inhibition incubated for 18 to 24 hrs by NCCLS protocol based microdilution method. The class given is functional. To be noted: time 18-24 hrs.
Experiment [17] has as its system Staphylococcus aureus. As to the kind of experiment: Antibacterial activity against norfloxacin resistant Staphylococcus aureus 1199B overexpressing NorA efflux pump gene assessed as bacterial growth inhibition incubated for 18 to 24 hrs by NCCLS protocol based microdilution method. The class given is functional. Conditions: time 18-24 hrs.

Each structure is given as a SMILES string. ≈ marks a conversion by molar mass, not a printed value.

`O=C(CCc1ccc(O)cc1)c1c(O)cc(O)cc1O`: the MIC was 8 µg/mL in [1] and 32 µg/mL in experiment [2].
In the case of `O=C1C[C@@H](c2ccc(O)cc2)Oc2cc(O)cc(O)c21`, the MIC in experiment [1] is 16 µg/mL; in experiment [2], 32 µg/mL.
Turning to `C=CCc1ccccc1` [ALLYLBENZENE], the MIC in [3] and in experiment [4] was greater than 1020 µg/mL in each case.
Take `CC1(C)C=Cc2c(cc3occ(-c4ccc(O)cc4)c(=O)c3c2O)O1` [ALPINUMISOFLAVONE]: the MIC in [5], in experiment [6], in [7], in [8] and in experiment [9] was 32 µg/mL (≈ 95.1 µM) throughout.
For `COc1ccc(-c2oc3cc(OC)c(OC)c(O)c3c(=O)c2OC)cc1OC` [ARTEMETIN], in [10], the MIC was 256 µg/mL (≈ 659 µM).
Consider `C=CCc1ccc(O)c(OC)c1` [EUGENOL], for which the MIC was 128 µg/mL (≈ 780 µM) in [3] and 102 µg/mL (≈ 619 µM) in [4].
Regarding `O=c1c(O)c(-c2ccccc2)oc2cc(O)cc(O)c12` [GALANGIN], the MIC in experiment [11] was 125 µg/mL (≈ 463 µM); in experiment [12], 250 µg/mL (≈ 925 µM); in experiment [13], 125 µg/mL (≈ 463 µM).
With `CC[n+]1c(-c2ccccc2)c2cc(N)ccc2c2ccc(N)cc21.[Br-]` [HOMIDIUM BROMIDE], the MIC in experiment [14] came to 32 µg/mL.
In the case of `O=c1c(O)c(-c2ccc(O)cc2)oc2cc(O)cc(O)c12` [KAEMPFEROL], the figures for the MIC in experiment [11], in [12] and in [13] were 125 µg/mL (≈ 437 µM), 250 µg/mL (≈ 873 µM) and 125 µg/mL (≈ 437 µM), respectively.
Regarding `COc1c2occc2cc2ccc(=O)oc12` [METHOXSALEN], the MIC in experiment [15], in [16] and in experiment [17] was greater than 256 µg/mL each time.
On to `C=CCc1cc(OC)c(O)c(OC)c1` [METHOXYEUGENOL], for which the MIC came out at 128 µg/mL (≈ 659 µM) in experiment [3] and 32 µg/mL (≈ 165 µM) in experiment [4].
Take `CCn1cc(C(=O)O)c(=O)c2cc(F)c(N3CCNCC3)cc21` [NORFLOXACIN]: the MIC in experiment [10] worked out at 32 µg/mL (≈ 100 µM); in [14], 64 µg/mL (≈ 200 µM).
Regarding `COc1cc(O)c2c(=O)c(OC)c(-c3ccc(O)c(OC)c3)oc2c1` [PACHYPODOL], in experiment [10], the MIC is 256 µg/mL (≈ 743 µM).
In the case of `CC(C)=CCOc1c2occc2cc2ccc(=O)oc12` [PENTOSALEN], the MIC in experiment [15], in experiment [16] and in experiment [17] was greater than 256 µg/mL each time.
With `O=C1C[C@@H](c2ccccc2)Oc2cc(O)cc(O)c21` [PINOCEMBRIN], the results for the MIC in experiment [11], in experiment [12] and in experiment [13] were 250 µg/mL (≈ 976 µM), 500 µg/mL (≈ 1950 µM) and 250 µg/mL (≈ 976 µM), respectively.
`COc1ccc(-c2coc3cc(O)cc(O)c3c2=O)cc1O` [PRATENSEIN]: the MIC in experiment [5], in [6], in experiment [7], in experiment [8] and in experiment [9] was 32 µg/mL (≈ 107 µM) in each case.
